In publication PMC5641092 (Oncotarget, 2017):
Like-named read-outs stand apart in the source and are kept apart here. Residues, ends and D or L forms follow the SMILES beside them.

How the values were obtained:
[1] = Complete blood count of xenografted mice; type: in vivo, FOXN1 mice; details: 7 mice
Procedure: 20 FOXN1 mice (Charles River Laboratories, Sulzfeld, Germany) were xenotransplanted with melanoma cells A375 subcutaneously in the right flank. The tumor was grown to a maximum length and width of 3 mm before peptide treatment was started (day 0). […] Treatment occurred at days 0, 1, 6, 7, 8, 11 and 12 in 7 single doses by injection into the tumor. The total dose per mouse was 1.67 mg. The single doses applied at day 0 and 1 contained 0.33 mg peptide and the residual doses contained 0.20 mg. The tumor sizes were measured with manual calipers during the treatment time span. At day 15 the mice were sacrificed and the tumors were isolated and examined together with the organs of the mice after paraffin embedment and staining of four-micron sections with hematoxylin and eosin. All animal work was done in accordance with the protocol approved by the institutional animal care and use committee at the Austrian Federal Ministry for Science and Research (BMWF) (vote 66.010/0160-II/3b/2012).

[2] = target: T1, pepsin from porcine gastric mucosa (Sus scrofa, UniProt P00791); test: Peptide stability in presence of pepsin at pH 2 (SDS-PAGE); type: in vitro ADME; details: pepsin in buffer pH 2, peptide:pepsin 10:1 weight ratio, 37°C, 1, 2 and 7 days
T1 construct: pepsin from porcine gastric mucosa (Sigma-Aldrich, Deisenhofen, Germany); purchased Sigma-Aldrich, Deisenhofen, Germany; host or cells: porcine gastric mucosa
T1 sequence (P00791 60-385): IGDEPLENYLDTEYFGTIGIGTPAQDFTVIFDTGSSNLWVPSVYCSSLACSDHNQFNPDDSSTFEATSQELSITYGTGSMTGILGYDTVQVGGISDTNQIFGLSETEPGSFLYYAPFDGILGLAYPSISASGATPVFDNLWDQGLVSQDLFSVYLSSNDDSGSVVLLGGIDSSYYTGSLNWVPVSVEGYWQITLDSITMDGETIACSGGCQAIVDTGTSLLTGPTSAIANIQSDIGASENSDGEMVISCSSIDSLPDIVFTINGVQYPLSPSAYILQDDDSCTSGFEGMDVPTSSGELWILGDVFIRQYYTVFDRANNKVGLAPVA
Procedure: (§1) Peptide stability was tested in presence of bovine serum albumin (BSA, Sigma-Aldrich, Deisenhofen, Germany), fetal bovine serum (FBS, Gibco®), buffer pH 2 (30 mM citric acid/HCl, 60 mM NaCl), pH 10 (10 mM Tris/NaOH), and pepsin from porcine gastric mucosa (Sigma-Aldrich, Deisenhofen, Germany) in buffer pH 2. […] After the given time points aliquots were taken and diluted with electrophoresis loading buffer (2.5% SDS) heated for 5 minutes at 95°C and analyzed by SDS-gel electrophoreses (BioRad, Mini-PROTEAN Tetra System). As standard the Ultra-low Range Molecular Weight Marker M3546 (Sigma-Aldrich, Deisenhofen, Germany) was used. For analysis of binding to BSA after 7 days respective samples were taken and loaded on Amicon Ultra-0.5 ml Centrifugal Filters (Ultracel-10K) (Merck Millipore, Tullagreen, IRL). After centrifugation (14.000g, 30 minutes, 4°C) the filtrate was analyzed for amount of non-BSA-bound peptide by measurement of UV-absorbance of tryptophan at 280 nm. The filtrate (free) peptide amount was corrected with the peptide loss during the filtration process by a control experiment with defined peptide amount.

[3] = target: T2, bovine serum albumin (BSA) (Bos taurus, UniProt P02769); test: Peptide stability in presence of BSA (SDS-PAGE); type: in vitro ADME; details: BSA 1:1 weight ratio, 37°C, 1, 6 and 7 days
T2 construct: purchased Sigma-Aldrich, Deisenhofen, Germany
T2 sequence (P02769 25-607): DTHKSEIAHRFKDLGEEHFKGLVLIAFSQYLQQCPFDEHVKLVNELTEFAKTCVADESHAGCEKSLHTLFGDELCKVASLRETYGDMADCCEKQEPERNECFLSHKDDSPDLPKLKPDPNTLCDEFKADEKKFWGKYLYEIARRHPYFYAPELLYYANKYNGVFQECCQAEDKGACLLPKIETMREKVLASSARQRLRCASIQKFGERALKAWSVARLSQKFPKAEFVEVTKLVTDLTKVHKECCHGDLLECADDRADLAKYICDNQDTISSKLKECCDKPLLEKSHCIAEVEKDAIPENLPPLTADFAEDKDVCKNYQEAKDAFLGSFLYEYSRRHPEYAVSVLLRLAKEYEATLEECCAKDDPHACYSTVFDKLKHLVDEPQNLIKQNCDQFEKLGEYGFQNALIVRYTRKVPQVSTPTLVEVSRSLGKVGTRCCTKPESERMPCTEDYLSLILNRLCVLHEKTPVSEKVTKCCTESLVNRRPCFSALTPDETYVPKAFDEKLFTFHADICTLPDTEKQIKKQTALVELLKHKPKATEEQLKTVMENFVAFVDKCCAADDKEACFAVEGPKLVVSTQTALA
Procedure: (§2) Peptide stability was tested in presence of bovine serum albumin (BSA, Sigma-Aldrich, Deisenhofen, Germany), fetal bovine serum (FBS, Gibco®), buffer pH 2 (30 mM citric acid/HCl, 60 mM NaCl), pH 10 (10 mM Tris/NaOH), and pepsin from porcine gastric mucosa (Sigma-Aldrich, Deisenhofen, Germany) in buffer pH 2. Therefore peptide samples were incubated in presence of 1:1 weight ratios (10:1 in presence of pepsin) with the mentioned components or in presence of buffer (pH 2 or 10) for 1 day, 6 days and 7 days at 37°C. After the given time points aliquots were taken and diluted with electrophoresis loading buffer (2.5% SDS) heated for 5 minutes at 95°C and analyzed by SDS-gel electrophoreses (BioRad, Mini-PROTEAN Tetra System). As standard the Ultra-low Range Molecular Weight Marker M3546 (Sigma-Aldrich, Deisenhofen, Germany) was used. For analysis of binding to BSA after 7 days respective samples were taken and loaded on Amicon Ultra-0.5 ml Centrifugal Filters (Ultracel-10K) (Merck Millipore, Tullagreen, IRL). After centrifugation (14.000g, 30 minutes, 4°C) the filtrate was analyzed for amount of non-BSA-bound peptide by measurement of UV-absorbance of tryptophan at 280 nm. The filtrate (free) peptide amount was corrected with the peptide loss during the filtration process by a control experiment with defined peptide amount.

[4] = Peptide stability in presence of fetal bovine serum (SDS-PAGE); type: in vitro ADME; details: FBS 1:1 weight ratio, 37°C
Procedure: as §1

[5] = target: T2, bovine serum albumin (BSA); test: Binding to BSA (centrifugal filtration, UV 280 nm); details: after 7 days of incubation at 37°C, Amicon Ultracel-10K filtration, corrected for filtration loss
Procedure: as §2

[6] = tested on: normal human dermal fibroblasts NHDF; test: MTS cell viability assay, NHDF; type: cell-based; details: 24 h, at least three experiments
Description: The human malignant melanoma cell line A375 was purchased from ATCC (American Type Culture Collection, Manassas, Virginia, US) and cultured in Dulbecco's Modified Eagle Medium with GlutaMAX™ (DMEM, Gibco®, Thermo Fisher Scientific, USA) with addition of 10% FBS (Gibco®). Melanoma cell lines from primary (SBcl-2) and metastatic (WM164) lesions (kindly provided by Dr. Meenhard Herlyn, the Wistar Institute, Philadelphia, PA) and newly established primary cells MUG-Mel1 (manuscript Rinner et al., in preparation) were maintained in RPMI 1640 medium with GlutaMAX™ (Gibco®, Thermo Fisher Scientific, USA) supplemented with 2% FBS (fetal bovine serum; Gibco®). Normal human dermal fibroblasts NHDF, used as healthy control cells, purchased from PromoCell GmbH were cultured in fibroblast growth medium 2 (PromoCell GmbH). All cells were kept in a 5% CO2 atmosphere at 37°C. […]
MTS viability assay-spectroscopy—Cell proliferation was measured by using CellTiter 96® Aqueous One Solution Cell Proliferation assay (Promega). […] The quantity of the formazan product as measured by the amount of 490 nm absorbance is directly proportional to the number of living cells in culture. Data are calculated as a percentage of the control (untreated) samples and represent the average of three wells in one experiment which was repeated three times per cell line.

[7] = Side effects after subcutaneous injection of peptide into the flank; type: in vivo, mice
Procedure: To test further potential side effects of the peptide in vivo, 3 mice were injected subcutaneously into the flank with 9 doses of peptide to a total amount of 0.68 mg per mouse over 3 weeks. Then the skin at injection site, liver, kidney, spleen, and weight were checked for abnormal changes (Supplementary Figure 1, liver and kidney).

[8] = tested on: human melanoma A375 xenografts; test: Mouse xenografts of human melanoma A375, intratumoral peptide treatment; type: in vivo, FOXN1 mice; details: day 1 and day 3, after first and second dose of 0.33 mg
Procedure: 20 FOXN1 mice (Charles River Laboratories, Sulzfeld, Germany) were xenotransplanted with melanoma cells A375 subcutaneously in the right flank. The tumor was grown to a maximum length and width of 3 mm before peptide treatment was started (day 0). 9 mice were treated with peptide dissolved in buffer PBS (P), 5 mice were treated with pure buffer (C+), 5 mice were untreated (C-). Treatment occurred at days 0, 1, 6, 7, 8, 11 and 12 in 7 single doses by injection into the tumor. The total dose per mouse was 1.67 mg. The single doses applied at day 0 and 1 contained 0.33 mg peptide and the residual doses contained 0.20 mg. The tumor sizes were measured with manual calipers during the treatment time span. […]
The tumor sections of peptide treated and untreated mice were evaluated for the following: tumor cell types (spindle, epithelioid, or mixed), tumor size, present/ absent necrosis or fibrosis. […] We performed Ki67 staining (Ki-67 rabbit primary antibody, 30-9; ready to use with Ventana iView DAB detection kit; Pretreatment: CC1mild; All Ventana Medical Systems, Inc, Tucson, Arizona).
All values were presented as the mean ± SEM. In vivo data were analyzed by using the unpaired student's t test, p-values less than 0.001 were considered statistically significant.

malignant melanoma = details: cited from earlier work; for response rates: malignant melanoma patients, ref [26], [27]
Description: Though, the specific target PS has been described to be exposed by numerous cancer types, we decided to focus on treatment of a cancer type with poor prognosis and limited therapy options, like malignant melanoma. […] In 1960s the risk to develop malignant melanoma was 1:600, whereas today it is 1:75 to 1:100 [23]. Further it exerts high tendency to metastasize and is mainly chemo-resistant. Thus the long-standing applied treatment with the methylating agent dacarbazine or its oral analogue temozolomide only yie ...

[9] = 3 mice, 9 s.c. doses, total 0.68 mg per mouse over 3 weeks
[10] = vemurafenib compared to dacarbazine, ref [30]

CC[C@H](C)[C@H](NC(=O)[C@H](CCCNC(=N)N)NC(=O)[C@@H](NC(=O)[C@H](CCCNC(=N)N)NC(=O)[C@H](CCCNC(=N)N)NC(=O)[C@@H]1CCCN1C(=O)[C@H](CCCNC(=N)N)NC(=O)[C@H](CCCNC(=N)N)NC(=O)[C@@H](NC(=O)[C@H](CCCNC(=N)N)NC(=O)[C@@H](NC(=O)[C@H](CCCNC(=N)N)NC(=O)[C@H](Cc1c[nH]c2ccccc12)NC(=O)[C@@H]1CCCN1)[C@@H](C)CC)[C@@H](C)CC)[C@@H](C)CC)C(=O)N[C@@H](CCCNC(=N)N)C(=O)N[C@@H](Cc1c[nH]c2ccccc12)C(=O)N1CCC[C@H]1C(N)=O [R-DIM-P-LF11-334] (H-PWRIRIRRPRRIRIRWP-NH2)
Bas ([1]; +P): 0.68% | EVB-CV ([1]; +P): 19.44% | EVB-SD ([1]; +P): 35.95 fL | MERY ([1]; +P): 0.34% | MTHR ([1]; +P): 8.13% | Medn ([1]; +P): 4.14 fL | Mod ([1]; +P): 3.05 fL | Other (leukocytes) ([1]; +P): 2.30% | TKT ([1]; +P): 0.43% | μERY ([1]; +P): 16.00% | μTHR ([1]; +P): 16.54% | Mon ([1]; +P, normal range 1-5): 4.46% | MPV ([1]; +P, normal range 3-8): 5.91 fL | TVB ([1]; +P, normal range 6-10): 10.10 | Erythrocytes ERY ([1]; +P, normal range 6-11): 8.53 10^6/μl | MCH ([1]; +P, normal range 13-22): 16.5 pg | Hb ([1]; +P, normal range 14-18): 14.06 g/dL | MCHC ([1]; +P, normal range 24-40): 32.85 g/dL | Hct ([1]; +P, normal range 35-45): 42.81% | MCV ([1]; +P, normal range 35-50): 50.18 fL | Lym ([1]; +P, normal range 70-81, marked ↑): 82.28% | Thrombocytes THR ([1]; +P, normal range 100-600, marked ↑): 705.00 10^3/μl | Eos ([1]; +P, normal range <10): 1.33% | Leukocytes LEU ([1]; peptide treated xenograft mice (+P), normal range 4-10): 6.13 10^3/μl | cleavage in presence of pepsin [2]: no visible cleavage | degradation of peptide by BSA [3]: no degrading effect | incubation time in FBS before amount of peptide is reduced [4]: more than 1 day | peptide remaining in FBS after 6 days [4]: no peptide was detectable | period of stability / complete activity in presence of FBS (blood components) [4]: 24 h | fraction of peptide left in FBS after 2 days ([4]; data not shown): about 1/3 | binding of the peptide to BSA [5]: approximately 75% | LC50 MTS [6]: > 90 µM | inflammation after subcutaneous injection [7, 9]: No inflammation occurred | organs (skin at injection site, liver, kidney, spleen) [7, 9]: unsuspicious | weight gain [7, 9]: normal | effect in liver and kidney (H&E sections) ([7]; s.c. treatment, 9 doses, Supplementary Figure 1): No effect | local reaction at tumor after intratumoral injection [8]: in some cases a wound developed

CN(C)/N=N/c1[nH]cnc1C(N)=O [dacarbazine]
response rates (malignant melanoma): about 15% | percentage of 5 years survival, solely dacarbazine (malignant melanoma; ref [29]): 8% | median survival (malignant melanoma; [10]): 9.7 months

Cn1nnc2c(C(N)=O)ncn2c1=O [temozolomide]
response rates (malignant melanoma): about 15%

CCCS(=O)(=O)Nc1ccc(F)c(C(=O)c2c[nH]c3ncc(-c4ccc(Cl)cc4)cc23)c1F [vemurafenib]
median survival (malignant melanoma; [10]): 13.6 months

ipilimumab: immunotherapy approved by the FDA in 2011, blocks the T-cell inhibition of CTLA-4
median survival (malignant melanoma; melanoma patients, ref [28]): 12.7 months | percentage of 5 years survival, in combination with dacarbazine (malignant melanoma; patients treated with ipilimumab in combination with dacarbazine, ref [29]): 18%
